Data as given in patent US20110195910A1, “USE OF TOCOTRIENOL COMPOSITION FOR THE PREVENTION OF CANCER” (DAVOS LIFE SCIENCE PTE. LTD., priority 2008, published 2011).

Columns and labels:
DU145 prostaspheres = experiment: Treatment of pre-formed CSC-enriched DU145 prostaspheres; type: cell-based; conditions: 40 ng/ml, 48 hrs
Protocol: (A) CSC enriched prostaspheres were formed by maintaining DU145 cells in non-adherent culture supplemented with serum replacement medium for 14 days. The prostaspheres were then treated with either vehicle, γ-T3 (10, 20 μg/ml) or Docetaxel (Doc, 40 ng/ml) for 48 hrs. Spheroids were counted under microscope before and after treatment. Results were presented as mean % change in spheroid number to control±s.d. Note that spheroids were highly sensitive to γ-T3 treatment but resistant to high dose of Docetaxel. (B) Images of prostaspheres after 48 hrs treatment with vehicle, 40 ng/ml of Docetaxel and 10 μg/ml of γ-T3.
5.1.7 Spheroid formation assay—Spheroid formation assay was performed with a protocol modified from previous study (Folkins C, p3560). Briefly, cells were first trypsinized, washed with 1× PBS and resuspended in DMEM F12 medium. Two hundred cells were added into each well of a 24-well-plate pre-coated with polyHEMA (Sigma, St. Louis, Mo.). Cells will be grown in DMEM/F12 mem (Invitrogen, Carlsbad, Calif.) supplemented with 4 μg/mL insulin (Sigma, St. Louis, Mo.), B27 (Invitrogen, Carlsbad, Calif.), 20 ng/mL EGF (Sigma, St. Louis, Mo.), and 20 ng/mL basic FGF (Invitrogen, Carlsbad, Calif.). Fresh medium with the above supplements was added every day. γ-T3 was added at indicated time points and the number of spheroids was counted at day 14 of the assay or at the end of the treatment. Each experiment was repeated in triplicates and each data point represented the mean and standard derivation.

DU145 = conditions: cited from earlier work
[1] = test system: human estrogen-independent BCa cells (MDA-MB-231); experiment: MTT cell viability, MDA-MB-231 cells; type: cell-based; conditions: MDA-MB-231, 24 hours
Protocol: 1.1.3 Cell viability study and time course experiment—For cell viability study, 1×10^4 cells resuspended in 100 μl medium were plated into each well of a 96-well plate. The cells were then treated with different concentrations of the vitamin-E isomers for 24 hrs. After the treatment, 20 μl of 3-(4,5-Dimethyl thiazol-2-yl)-2,5-diphenyl tetrazolium bromide (MTT) solution was added into each well and the cells were incubated at 37° C. for 2 hrs. The formazan crystals were then re-suspended in 200 μl of DMSO and the intensity at 595 nm was measured. For JNK inhibitor study, cells were pre-treated with 20 μM of SP600125 for 8 hrs prior to the addition of vitamin-E isomers. For time course study, 5×10^3 cells were treated with different concentrations of the vitamin-E isomers and were subjected to MTT cell proliferation assay at the indicated time point. If IC50 for the isomer is >100 μM, 100 μM will be used as treatment dosage.
3.1.4 Cell viability and time course experiments were carried out as described above under item 1.1.3 with the following difference. For inhibitors study, cells were pre-treated with inhibitors (U0126, PD98059 and APN) at targeted dosage for 8 hrs prior to the addition of vitamin-E isomers.

MDA-MB-231 cells = experiment: Flow cytometry, western blotting and RT-PCR, MDA-MB-231 cells; type: cell-based, human; conditions: MDA-MB-231
Protocol: 1.1.3 Flow cytometry—Cell cycle distribution was examined using flow cytometry. Briefly, cells were harvested by trypsinization, fixed in 70% ethanol at 4° C. overnight, and then resuspended in PBS. After incubation at 4° C. for overnight, 2×10^6 cells were incubated with in 20 μg/ml propidium iodide (PI) and 2 mg RNaseA for 15 minutes at 37° C. Cells were then examined by BD SLRII cytometer and the results were analyzed using ModFit software (Becton Dickinson, Mountain View, Calif.). Data were expressed as the percentage of cell cycle distribution in the entire population.
1.1.5 Western blotting—Detailed protocols have been described previously and are known in the art. Briefly, cell lysates were prepared by suspending cell pellets in lysis buffer [50 mmol/l Tris-HCl (pH 8.0), 150 mmol/l NaCl, 1% NP40, 0.5% deoxycholate, 0.1% SDS, 1 mg/ml aprotinin, 1 μg/ml leupeptin and 1 mmol/l phenylmethylsulfonyl fluoride]. For nuclear protein extraction, NucBuster™ protein extraction kit was used. Protein concentration was measured using the DC Protein Assay kit (Bio-Rad, Hercules, Calif.). Equal amount of protein (30 μg) was loaded onto a 10% SDS polyacrylamide gel for electrophoresis and then transferred onto a polyvinylidene difluoride membrane (Amersham, Piscataway, N.J.). The membrane was then incubated with primary antibodies for 1 hr at room temperature against E-cadherin (BD Biosciences, Bedford, Mass.), α-catenin, β-catenin, γ-catenin, Id-1, Id-3, EGFR, phosphor-c-jun, phosphor-ATF2, cleaved PARP, vimentin, α-smooth muscle actin, twist (Santa Cruz Biotechnology, Calif.), phosphor-IkB-alpha (Ser32/36), phosphor-IKK alpha (Seri 80)/IKK beta (Ser181), phosphor-SAPK/JNK (Thr183/Tyr185) G9, SAPK/JNK, NF-kB p65 (5A5) (Cell Signaling Technology Inc, Beverly, Mass.), Snail (Abcam). After incubation with appropriate secondary antibodies, signals were visualized by ECL western blotting system (Amersham, Piscataway, N.J.). Expression of β-actin and histone H1 were assessed as an internal loading control for total cell lysate and nuclear protein lysate respectively.
3.1.5 DNA fragmentation assay—After 24 hrs incubation with gamma-T3, 3×10^6 MDA-MB-231 cells were harvested and suspended in lysis buffer [5 mM Tris-HCl (pH 8.0), 20 mM EDTA, and 0.5% (v/v) Triton X-100] for 60 min on ice. Samples were centrifuged, the supernatants were removed and incubated with 5 μl RNase A (10 μg/ml) at 37° C. for 40 min, and 1 ml of anhydrous ethanol was added. Tubes were placed at […] for 20 min and then centrifuged to pellet the DNA. DNA samples were analyzed by electrophoresis at 80 V for 3 hrs on a 2% agarose gel containing ethidium bromide (0.2 μg/ml) and visualized under UV illumination.
3.1.6 Terminal deoxynucleotidyltransferase-mediated deoxyuridine triphosphate nick end-labelling (TUNEL) assay—DNA strand breaks during apoptosis was examined using in situ cell death detection reagent (Roche Applied Science). Briefly, 1×10^6 cells were pretreated with gamma-T3 for 24 hrs. Thereafter, cells were incubated with reaction mixture for 60 min at 37° C. Stained cells were analyzed and captured by fluorescence microscope on glass slide.
3.1.7 Flow cytometry was carried out as described above under item 1.1.3. Matrigel-invasion assay was carried out as described above under item 1.1.4. Western blotting was carried out as described above under item 1.1.5.
3.1.8 Id-1 RT-PCR—Total RNA was isolated using Trizol® reagent according to the manufacturer's protocol (Invitrogen). cDNA was synthesized using the SuperScript™ First Strand Synthesis System (Invitrogen) and was then amplified by PCR with Id-1 specific primers (forward primer, Id1-S, 5′-CTCCAGCACGTCATCGACTA-3′ and reverse primer, Id1-AS,5′-AAC GCA TGC CGC CTC-3′). PCR cycling protocol was as follows: 30 cycles of 10 min at 95° C., 30 s at 95° C., 30 s at 55° C., 1 min at 72° C. and 10 min at 72° C. Glyceraldehyde 3-phosphate dehydrogenase was amplified as an internal control. […]

[2] = test system: human androgen-dependent PCa cells (LNCaP); experiment: MTT cell viability, LNCaP cells; type: cell-based
Protocol: 2.1.3 Cell viability study and time course experiment—For cell viability study, 5×10^3 cells resuspended in 100 μl medium were plated into each well of a 96-well plate. The cells were then treated with different concentrations (20, 40, 60, 80, 100 μM) of the vitamin-E isomers for 24 and 48 hrs. After the treatment, 20 μl of MTT solution was added into each well and the cells were incubated at 37° C. for 2 hrs. The formazan crystals were then re-suspended in 200 μl of DMSO and the intensity at 595 nm were measured. For JNK inhibitor study, cells were pre-treated with 20 μM of SP600125 for 8 hrs prior to the addition of vitamin-E isomers. For time course study, 5×10^3 cells (LNCaP and PC3) were treated with IC50 concentrations of the vitamin-E isomers and were subjected to MTT assay at the indicated time point. […] After 24 hrs, cells were subjected to western blotting and MTT assays respectively.

[3] = test system: prostate intraepithelial neoplasia (PIN); experiment: Prevention of prostate intraepithelial neoplasia (PIN) in prostate cancer mouse models; type: in vivo; conditions: fed mice, FIG. 8
Protocol: For experiments, 5-week old prostate cancer mouse models previously published (Gabril, M. Y., Duan, W., et al., Molecular Therapy (2005), vol. 11, no. 3, p. 348; Greenberg et al., Proc Natl Acad Sci USA (1995), vol. 92, pp. 3439-3443; Duan, W., Gabril, M. Y., et al., Oncogene (2005) 24, 1510-1524; Wang S, Gao J, et al., Cancer Cell., 2003, vol. 4, no. 3, pp. 209-21; Gabril, M. Y., Onita, T., et al., Gene Ther., 2002, vol. 9, no. 23, pp. 1589-99) are used. All animal experiments were conducted according to standard protocols approved by Animal Care Committee. Genotyping was performed in PSP-TGMAP, and KIMAP mice were identified by a quick PCR genotyping protocol as previously reported (see above references referred to under item 6).
In one exemplary experiment, the animals are given 1 mg of gamma tocotrienol per day for 30 weeks via oral gavage. At the end of 10, 20 and 30 weeks, animals are sacrificed. The prostate along with the male accessory glands, i.e., the ventral and dorsolateral prostate lobes, seminal vesicles, and coagulation gland, were dissected out separately for histopathological characterization of prostate tumor development, prostate intraepithelial neoplasia (PIN) development and microinvasion. […]

CC(=O)O[C@@]12CO[C@@H]1C[C@H](O)[C@@]1(C)C(=O)[C@H](O)C3=C(C)[C@@H](OC(=O)[C@H](O)[C@@H](NC(=O)OC(C)(C)C)c4ccccc4)C[C@@](O)([C@@H](OC(=O)c4ccccc4)[C@H]21)C3(C)C [Docetaxel, (2R,3S)—N-carboxy-3-phenylisoserine, N-tert-butylester, 13-ester with 5,20-epoxy-1,2,4,7,10,13-hexahydroxytax-11-en-9-one-4-acetate-2-benzoate, trihydrate, reference compound]
effect on prostasphere number (DU145 prostaspheres): failed to induce any observable effect on prostasphere number
IC90 dosage (DU145): 1.01 ng/mL

COc1cccc(-c2cc(=O)c3ccccc3o2)c1N [PD98059]
cancer cell viability after gamma-T3 treatment with MAPK inhibitor [1]: not able to restore cancer cell viability

N#CC(=C(/N)Sc1ccccc1N)/C(C#N)=C(\N)Sc1ccccc1N [U0126]
cancer cell viability after gamma-T3 treatment with MAPK inhibitor [1]: not able to restore cancer cell viability

N#CCCN [β-aminopropionitrile, reference compound]
Id1 expression on co-treatment with gamma-T3 (MDA-MB-231 cells): almost completely restored the expression of Id1

Cc1c(O)cc2c(c1C)O[C@](C)(CCC[C@H](C)CCC[C@H](C)CCCC(C)C)CC2 [γ-T, 7,8-dimethyltocol, reference compound]
induction of apoptosis in LNCaP cells ([2]; data not shown): induce apoptosis in LNCaP cells at a dose similar to γ-T3

CC(C)=CCC/C(C)=C/CC/C(C)=C/CC[C@]1(C)CCc2cc(O)cc(C)c2O1 [δ-T3, 8-methyltocotrienol]
development of prostate intraepithelial neoplasia (PIN) [3]: did not develop PIN
potency in suppressing cell growth in LNCaP ([2]; compared with the other isomers): more potent
